Laboratory results taken from patent US20240115649A1, “CASPASE INHIBITION TO ENHANCE REGENERATION AND REPAIR AFTER SKIN OR GUT INJURY AND TO TREAT BACTERIAL OR VIRAL INFECTIONS” (The Johns Hopkins University, priority 2020, published 2024).

What was measured:
S. pyogenes strain Xen20 = assay type: in vivo; conditions: WT C57BL/6 mice; single dose at 4 hours; vs untreated
IL-1β = test: Serum IL-1β levels after S. aureus skin inoculation; assay type: in vivo, mice; conditions: days 1 and 3
Protocol: (§1) Serum IL-1β and TNF levels. Serum IL-1β and TNF protein levels (pg/mL) were measured from serum collected on days 1 and 3 after S. aureus skin inoculation±Q-VD-OPH treatment using Bio-Plex protein assays and normalized to total protein, according to the manufacturer's recommendations (Bio-Rad).

TNF = test: Serum TNF levels after S. aureus skin inoculation; assay type: in vivo, mice; conditions: days 1 and 3; vs untreated
Protocol: as §1

[1] = test system: P. aeruginosa strain Xen41; test: P. aeruginosa skin infection model; assay type: in vivo; conditions: WT C57BL/6 mice; treatment at 4 hours; vs untreated
Staphopain A (sspP) = target: T1, Staphopain A (sspP) (Staphylococcus aureus, UniProt P81297); test: Protease activity assays and protein blot, Staphopain A; assay type: biochemical, S. aureus
T1 construct: purchased CUSABIO
T1 sequence (P81297 215-388): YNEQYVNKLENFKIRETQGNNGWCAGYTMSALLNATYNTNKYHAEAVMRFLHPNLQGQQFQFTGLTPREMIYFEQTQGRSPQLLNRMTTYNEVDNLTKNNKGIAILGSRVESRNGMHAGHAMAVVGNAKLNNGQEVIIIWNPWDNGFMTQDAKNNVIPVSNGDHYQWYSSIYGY

BMDMs = test: BMDM cultures with live S. aureus ± caspase inhibitors; conditions: Q-VD-OPH 10 μg/mL, live S. aureus 6 hours
[2] = test system: mouse epithelial keratinocytes; test: Mouse epithelial keratinocyte culture (qRT-PCR, immunoblot)

CC(C)[C@H](NC(=O)c1ccc2ccccc2n1)C(=O)N[C@@H](CC(=O)O)C(=O)COc1c(F)cccc1F [Q-VD-OPH, Quinoline-val-asp-difluorophenoxymethyl ketone]
bacterial burden (in vivo BLI) (S. pyogenes strain Xen20): rapidly reduced bacterial burden
skin lesion sizes (S. pyogenes strain Xen20): substantially decreased skin lesion sizes
serum levels of IL-1β (IL-1β): decreased serum levels of IL-1β
serum TNF protein levels (TNF): increased serum TNF protein levels
bacterial burden (in vivo BLI) [1]: modest but significantly decreased
skin lesion sizes [1]: modest but significantly decreased skin lesion sizes
physical conformational changes or degradation of sspP (protein blot) (Staphopain A (sspP); 2 hours at 37° C.): did not induce any physical conformational changes or cause degradation
activity of sspP on gelatinase activity or elastin proteolysis (Staphopain A (sspP); Q-VD-OPH 10 μg/mL, 20 hours): did not affect the activity
necroptosis (western blot for pMLKL and MLKL) (BMDMs): necroptosis was increased
percentages of TNF+ BMDMs (BMDMs; Emricasan 9 μg/mL): 33.53%
viable cells (Zombie UV negative cells) (BMDMs; Emricasan 9 μg/mL, no significant differences vs no treatment): ~80%
IL-36 receptor (IL36r) expression ([2]; 48 hrs treatment): not detected
IL-36 receptor antagonist (IL-36m) protein or mRNA levels ([2]; 48 hrs treatment): No differences
IL-36α mRNA ([2]; 48 hrs treatment): higher levels of IL-36α mRNA and protein
Tlr3 expression ([2]; 48 hrs treatment): again elevated
caspase gene mRNA (inflammatory caspases 1 and 4) ([2]; 48 hrs treatment): compensatory mRNA increases of caspase genes
IL-36α protein (whole-cell lysates) ([2]; mouse epithelial keratinocytes): higher levels of IL-36α mRNA and protein
